Peptide text beside a SMILES is read from it.
How the values were obtained:
[1] = MTT cell viability (cytotoxicity); type: cell-based; conditions: human, Caco-2 cells (1 × 10^4), synthetic peptides 0.05 mg/mL, no TbOOH, mean ± SD of at least three experiments, read-out: Percentage of Cell Viability, None (c)
Caco-2 cell monolayer = test: Transepithelial transport through Caco-2 cell monolayers (Transwell); type: in vitro ADME; conditions: Caco-2 monolayer on Transwell, 21 days, TEER > 1100 Ω × cm^2, 75 µg peptide in 0.75 mL HBSS apical, 37 °C, RP-HPLC UV 220 nm, mean ± SD, n. d. = not detected with RP-HPLC
Experimental: Caco-2 cells were obtained from DISCOG (University of Padova, Padova, Italy). The cells cultured in DMEM (high glucose) supplemented with 10% FBS, were used between 35 and 60 passages. In order to perform transepithelial transport, 8 × 10^4 cells were seeded on Transwell^© cell culture inserts (0.4 µm pore sizes, 12 mm diameter, 1.12 cm^2 grown surface; Corning Life Sciences, Tewksbury, MA, USA). Cells were grown, differentiated for 21 days and the monolayer integrity was estimated by transepithelial electrical resistance (TEER) (Millicell® ERS-2 volt-ohmmeter, EDM Millipore, Darmstadt, Germany) showing values higher than 1100 Ω × cm^2.
The intestinal barrier crossing capacity of the fractions or synthetic peptides through Caco-2 cells monolayer was evaluated using Transwell® insert model according to Tonolo et al.. Briefly, after 21 days of culturing, Caco-2 cells differentiated forming a monolayer that delimited an upper part (apical compartment) and lower part (basolateral compartment). The monolayer was rinsed three times with Hank’s balanced salt solution (HBSS) and 10 mM D-glucose and equilibrated for 30 min at 37 °C. After, cells were incubated in the presence of 0.75 mL HBSS containing 150 µg fraction or 75 µg peptide in the apical chamber at 37 °C for 120 min. Samples collected from both compartments (apical and basolateral) at different times were centrifuged at 11,600× g, filtered with 0.45 µm filter, frozen and lyophilized. Subsequently, the obtained samples were dissolved in 100 µL of 0.1% TFA aqueous solution and evaluated by RP-HPLC and Matrix assisted laser desorption/ionization- time of flight/time of flight mass spectrometry (MALDI-TOF/TOF MS).
The apical and basolateral compartments were evaluated in RP-HPLC using a column Onyx Monolithic C18 100 mm × 4.6 mm, LC column (Phenomenex, Torrance, CA, USA) with a Waters 2695 Separation Module (Milfold, MA, USA) with a Waters 996 Photodiode Array Detector. Separations were performed with a linear gradient from 0–60% ACN in the presence of 0.1% TFA over 20 min at a constant flow rate of 2 mL/min monitoring the peaks by UV detection (λ = 220 nm).
Subsequently, the obtained fractions were analysed with a MALDI-TOF/TOF 4800 mass spectrometer (AB Sciex, Framingham, MA, USA). After an initial full MS scan, enlargements on the MS signals of interest were acquired. For the basolateral fractions, the samples, after lyophilisation, were dissolved in 50 µL of 25% ACN and 0.1% TFA. The analysis was then performed on 2 µL of these solutions mixed with 2 µL of peptide MALDI matrix α-cyano-4-hydroxycynnamic acid (10 mg/mL aqueous 70% acetonitrile/0.1% TFA). The following analytical conditions were set for MALDI-TOF spectra acquisition: positive ion reflector mode, initial mass range 500–3500 Da (the mass range was then adapted for each enlargement), variable laser intensity (3000–3800), shots/sub-spectrum 50, total shots/spectrum 1500 and accelerating voltage of 20 kV. Final data analysis and fragments identification were done on Data Explorer software (AB Sciex, Framingham, MA, USA), utilizing external mass calibration performed with mass peptide standards (Sigma-Aldrich, St Louis, MO, USA).
In order to evaluate the intestinal crossing capacity of the four peptides, Transwell® insert model peptide absorption, was performed. […] After 10 min and 120 min, apical and basolateral compartments were collected and analyzed by RP-HPLC and mass spectrometry.

Compound: CSCC[C@H](NC(=O)[C@@H](NC(=O)[C@@H](NC(=O)[C@@H]1CCCN1C(=O)[C@H](CCC(N)=O)NC(=O)[C@H](C)NC(=O)[C@H](CCC(N)=O)NC(=O)[C@H](CS)NC(=O)[C@H](CO)NC(=O)[C@H](CCCCN)NC(=O)[C@H](C)NC(=O)[C@@H]1CCCN1C(=O)[C@@H](NC(=O)[C@@H](NC(=O)[C@@H](N)CC(N)=O)[C@@H](C)O)C(C)C)[C@@H](C)O)[C@@H](C)O)C(=O)O [N-15-M] (H-NTVPAKSCQAQPTTM-OH)
- viability at 24 h, 50 µg/mL [1]: 108 ± 5.96%
- RP-HPLC Estimation AP (%) (Caco-2 cell monolayer; 120 min after 30 min equilibration, apical compartment, % of total peptide added): 60.76 ± 8.83%
- RP-HPLC Estimation BL (%) (Caco-2 cell monolayer; A-B, 120 min, basolateral compartment, % of initial peptide added apically): 0.13 ± 0.04%
